Experimental findings from patent US10669637B2, “Purine-based corrosion inhibitors” (Ecolab USA Inc., priority 2015, dated 2020) are described below.

A short description of this assay: Copper corrosion rate by linear polarization resistance. Particulars: for No FRC Corrosion Rate (mpy) / 1 ppm FRC Corrosion Rate (mpy): copper coupons, 5 ppm inhibitor, pH 7.0, 45° C.; for No FRC Corrosion Rate (mpy): absence of bleach, average over 20 to 24 hour period; for 1 ppm FRC Corrosion Rate (mpy): bleach maintained at 1 ppm FRC. On the procedure:
In addition, the corrosion rate of copper in the presence of benzimidazole, tolyltriazole, imidazole, pyrimidine, 6,6-dimethyladenine, and 6-methylpurine was determined using linear polarization resistance measurements. […] For each experiment, cylindrical copper coupons pre-polished using SIC 600 paper and fitted on a Pine rotator were immersed in a solution of corrosion inhibitor. […] The pH of the test water was maintained at 7.0 using carbon dioxide, and the water temperature was maintained at 45° C. throughout the experiment. […] Density: 8.92 g/cm^3; Copper Eq. Weight: 63.54 g; and Initial delay: 30 seconds. Next, the copper samples were exposed to a 25% bleach solution. […] The Rp in the absence and presence of bleach was collected and analyzed, and the average corrosion rate was calculated and recorded in Table 1. Corrosion rates were calculated in mils per year (mpy).

Take `c1cncnc1` [Compound 9, Pyrimidine]: the “No FRC Corrosion Rate (mpy)” value is recorded as 1.2 mpy and the “1 ppm FRC Corrosion Rate (mpy)” value is 0.79 mpy.
On to `Cc1ncnc2nc[nH]c12` [Compound 11, 6-Methylpurine], for which the “No FRC Corrosion Rate (mpy)” value worked out at 0.74 mpy and the “1 ppm FRC Corrosion Rate (mpy)” value is 0.44 mpy.
Consider `c1ccc2[nH]cnc2c1` [Compound 6, Benzimidazole], for which the “No FRC Corrosion Rate (mpy)” value was 0.0890 mpy and the “1 ppm FRC Corrosion Rate (mpy)” value amounted to 0.9594 mpy.
Take Tolyltriazole [Compound 7]: the “No FRC Corrosion Rate (mpy)” value amounted to 0.0214 mpy and the “1 ppm FRC Corrosion Rate (mpy)” value is 0.0995 mpy.
As for `Nc1ncnc2nc[nH]c12` [Compound 5, Adenine], the “No FRC Corrosion Rate (mpy)” value was 0.1665 mpy and the “1 ppm FRC Corrosion Rate (mpy)” value came out at 0.3571 mpy. In addition, the “change of copper corrosion rate upon the addition of bleach” value (1 ppm FRC) is recorded as “observed increase”. Under “listed as adenine”, the “No FRC Corrosion Rate (mpy)” value is on record as 0.16 mpy and the “1 ppm FRC Corrosion Rate (mpy)” value was 0.35 mpy.
Take `CN(C)c1ncnc2nc[nH]c12` [Compound 10, 6,6-Dimethyladenine]: the “No FRC Corrosion Rate (mpy)” value was determined as 0.68 mpy and the “1 ppm FRC Corrosion Rate (mpy)” value is recorded as 0.66 mpy.
As for `c1c[nH]cn1` [Compound 8, Imidazole], the “No FRC Corrosion Rate (mpy)” value is 0.69 mpy and the “1 ppm FRC Corrosion Rate (mpy)” value was 1.1 mpy.
The matching figures for `Oc1ncnc2nc[nH]c12` [Compound 4, Hypoxanthine]: 0.1036 mpy and 0.1684 mpy.
On to `Clc1ncnc2nc[nH]c12` [Compound 3, 6-Chloropurine], for which the “No FRC Corrosion Rate (mpy)” value was 0.04 mpy and the “1 ppm FRC Corrosion Rate (mpy)” value was 0.16 mpy.
